Drawing on PubChem BioAssay AID588780 (Sanford-Burnham Center for Chemical Genomics, 2011), this text covers IC50 for 84 compounds.

Activity calls are given as the source filed them.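 Rule for the calls: active = compounds whose fitted half-maximal concentration in the cell-protection dose series is at or below a set limit; inactive = the rest.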 Some results are limits rather than exact numbers.

This test relates to H9c2 cardiomyocytes, 2-deoxyglucose stress, ATP luminescence, 2 h. Nature of the test: protection of cardiomyocytes from 2-deoxyglucose injury, dose response, cell-based, 2-deoxyglucose stress, uHTS hits (AID 588780).
For `CCN1C(=O)[C@H]2[C@H]3CN=C(SCc4ccc(C#N)cc4)N3[C@@](Cc3ccccc3)(C(=O)OC)[C@H]2C1=O`, the IC50 (commonly the concentration needed to halve the response being measured) is > 79 µM (inactive). For `COc1ccc(-c2ccc(Nc3ccc(S(=O)(=O)N4CCCC4)cc3)nn2)cc1OC`, the IC50 is 25 µM. The same measure for `Oc1c(Br)cc(Br)cc1C=Nc1ccc2c(c1)OCCO2`: 24.4 µM. The same measure for `Cn1c(=O)c2c(nc(NCCCO)n2C/C=C/c2ccccc2)n(C)c1=O`: > 79 µM (inactive); for `c1cncc(-c2nc(NCC3COc4ccccc4O3)c3ccccc3n2)c1` (centres undefined): > 79 µM (inactive); for `O=c1cc(-c2ccncc2)oc2ccccc12`: > 79 µM (inactive). With `O=c1cc(CSc2nc3ccccc3c(=O)[nH]2)c2ccc(O)cc2o1` the figure was > 79 µM (inactive); with `O=C(CSc1nnc(-c2cccnc2)o1)c1cc2ccccc2oc1=O`, 67 µM (inactive). For the compound `O=C(COC(=O)CCc1nc2ccccc2c(=O)[nH]1)Nc1ccc2c(c1)OCO2`, the IC50 is > 79 µM (inactive). The same measure for `COc1ccc(CC(=O)N(Cc2ccccc2)c2ccccc2)cc1S(=O)(=O)N1CCOCC1`: > 79 µM (inactive); for `COc1ccc(Cl)cc1-c1nc(-c2ccc(NC(=O)c3cccs3)cc2)no1`: > 79 µM (inactive). The same measure for `Cc1ccc(-c2nnc3ccc(SCC(=O)N4CCCc5ccccc54)nn23)cc1`: > 79 µM (inactive). The same measure for `C[C@H](CO)N1C[C@H](C)[C@@H](CN(C)S(=O)(=O)c2cccs2)Oc2ccc(NC(=O)Nc3ccccc3)cc2C1=O`: 28.2 µM; for `C[C@H](NC(=O)c1nc[nH]c1C(=O)NCC(=O)OCc1ccccc1)c1ccccc1`: 13.6 µM. As to `O=C(N/N=C/c1ccc2c(c1)OCO2)c1ccc(NC(=O)c2ccccc2Cl)cc1`, the IC50 was 16.2 µM. With `O=C(CN1CCN(S(=O)(=O)c2cc(Cl)ccc2Cl)CC1)c1ccc(O)c(O)c1` the figure was > 79 µM (inactive); with `COC(=O)c1cc(OC)c(OC)cc1NC(=O)c1ccc(OC)c(OC)c1`, > 79 µM (inactive).

`Cc1ccc(CN(C)C(=O)COC(=O)CSc2ccc(C(N)=O)cc2[N+](=O)[O-])cc1`: the IC50 was 31.3 µM (inactive). With `COc1ccc(C(=O)COC(=O)Cc2n[nH]c(=O)c3ccccc23)c(OC)c1` the figure was > 79 µM (inactive); with `Cc1ccc(C(C(=O)NCc2ccccc2)N(Cc2ccco2)C(=O)c2snc(C(N)=O)c2N)o1` (centres undefined), > 79 µM (inactive). The same measure for `NC(=O)COc1ccc2oc(=O)cc(-c3cc4ccccc4o3)c2c1`: > 79 µM (inactive); for `COc1cc(NC(=O)c2ccco2)c(OC)cc1NC(=O)c1cc(OC)c(OC)c(OC)c1`: > 79 µM (inactive); for `Cc1cccc(/N=C/c2c(O)ccc3oc4c(c23)CCCC4)n1`: > 79 µM (inactive).

Take `COc1cc(OC)cc(C(=O)Nc2ccc(C(=O)Nc3ccccc3OC)cc2)c1`: the IC50 was 15.9 µM.

Consider `CC(C)c1cc(N2CCN(C(=O)c3ccco3)CC2)n2c(nc3ccccc32)c1C#N`, for which the IC50 is 28.5 µM. With `O=S(=O)(c1ccc(Cl)cc1)c1cc(O)ccc1O`, the IC50 was > 79 µM (inactive). Turning to `O=C(Cn1[nH]c(=O)c2ccccc2c1=O)NC1CCN(Cc2ccccc2)CC1`, the IC50 is > 79 µM (inactive). The same measure for `CC(C)COP(=O)(OCC(C)C)C(Nc1ccccc1)c1ccc2c(c1)OCO2` (centres undefined): > 79 µM (inactive); for `C[C@H](NC(=O)c1nc[nH]c1C(=O)NCC(=O)OCc1ccccc1)C(=O)OCc1ccccc1`: > 79 µM (inactive); for `O=C(c1ccc(-c2nc3ccccc3s2)o1)N1CCN(c2ccccc2O)CC1`: 12.3 µM. With `COc1ccc(NCc2cc3ccccc3[nH]c2=O)cc1` the figure was > 79 µM (inactive); with `O=C(NCCN1CCN(c2ccccc2F)CC1)c1cccn2c(=O)c3ccccc3nc12`, 11.2 µM. With `COc1ccc(OC)c(C2CC(=O)c3c([nH]c(C(=O)OCC4CCCO4)c3C)C2)c1` (centres undefined) the figure was > 79 µM (inactive). As to `CCCCc1nc2sc3c(c2c(=O)[nH]1)CCC3`, the IC50 is > 79 µM (inactive). The same measure for `COC(=O)c1[nH]c2c(c1C)C(=O)CC(c1cc(OC)ccc1OC)C2` (centres undefined): > 79 µM (inactive); for `O=C(Nc1ccccc1)c1cccc2c(-c3cccnc3)coc12`: > 79 µM (inactive). The same measure for `O=c1[nH]c2cc(F)ccc2c2ccc(F)cc12`: 73.6 µM (inactive); for `CC(NC(=O)Cn1nc(C(=O)O)c2ccccc2c1=O)c1ccccc1` (centres undefined): > 79 µM (inactive); for `CCOC(=O)C1=C(C)NC(C)=C(C(=O)OCCNC(=O)c2cccnc2)C1c1cccc([N+](=O)[O-])c1` (centres undefined): 28.6 µM. With `Cc1sc2nc(CSCC(=O)N(C)c3ccccc3)[nH]c(=O)c2c1C` the figure was 29.8 µM; with `COc1ccccc1NS(=O)(=O)c1ccc2oc(SCC(=O)N3CCNC3=O)nc2c1`, 36.5 µM (inactive). Regarding `COc1cc(Nc2nc3ccccc3n3nnnc23)cc(OC)c1OC`, the IC50 is > 79 µM (inactive). On to `COc1ccc(OC)c(NC(=O)c2sc3ncnc(N4CCN(c5ccccn5)CC4)c3c2C)c1`, for which the IC50 is > 79 µM (inactive). With `CCn1cc(C(=O)Nc2cccc(NC(C)=O)c2)c2cc(OC)c(OC)cc2c1=O`, the IC50 was > 79 µM (inactive). `O=C(C[C@H]1C/C=C\CC[C@H](Cc2ccc(F)cc2)C(=O)O[C@@H](c2ccccc2)CNC1=O)N[C@H](CO)Cc1ccccc1`: the IC50 is > 79 µM (inactive). With `COc1ccc(OCC(O)Cn2c(Br)nc3c2c(=O)[nH]c(=O)n3C)cc1` (centres undefined) the figure was 38.7 µM (inactive); with `Cc1nn(-c2ccccc2)nc1C(=O)Nc1cccc(C(=O)NC2CC2)c1`, > 79 µM (inactive). With `CC1Nc2ncnc(N3CCN(c4ccccc4)CC3)c2N(Cc2ccc(Cl)cc2)C1=O` (centres undefined) the figure was 12.7 µM; with `O=C(c1cc(=O)[nH]c2ccccc12)N1CCN(S(=O)(=O)c2ccc(Cl)cc2)CC1`, > 79 µM (inactive). Turning to `Fc1ccc(CSc2ccc3nnc(-c4cccnc4)n3n2)cc1`, the IC50 was 26 µM. With `COc1cccc(-c2cnc3c(NC=O)cc(-c4ccc(O)c(OC)c4)cn23)c1` the figure was > 79 µM (inactive); with `O=C/C(=C\Nc1ccccn1)c1nc2cc(Cl)ccc2o1`, > 79 µM (inactive).

With `CC1CN(c2nn3c(=O)c4ccccc4nc3c3ccccc23)CC(C)O1` (centres undefined), the IC50 is > 79 µM (inactive). The same measure for `CCOc1cccc(-c2c(C(=O)N/N=C(\C)c3ccccn3)nnn2-c2nonc2N)c1`: > 79 µM (inactive). Take `COc1cc(C(=O)Nc2ccc(NC(=O)c3cccc(Cl)c3)nc2)cc(OC)c1OC`: the IC50 was 13.8 µM. The same measure for `O=C(Cn1[nH]c(=O)c2ccccc2c1=O)OCC(=O)N1CCc2ccccc2C1`: > 79 µM (inactive); for `O=C(COC(=O)Cn1[nH]c(=O)c2ccccc2c1=O)NNC(=O)c1ccccc1`: > 79 µM (inactive). The same measure for `N#Cc1cnn2cc(-c3ncc(C(F)(F)F)cc3Cl)cnc12`: 27.6 µM; for `CCCCOc1ccc(C(=O)N/C(=C\c2ccc(OC)cc2)C(=O)OCc2ccco2)cc1`: > 79 µM (inactive); for `COc1cccc(-c2cnc3c(NC(C)=O)cc(-c4cccc(NS(C)(=O)=O)c4)cn23)c1`: > 79 µM (inactive). The same measure for `O=C1OCCN1C(=O)[C@H]1[C@H](c2ccc([N+](=O)[O-])cc2)C(c2cccc(Cl)c2)=NN1c1ccc(Br)cc1`: > 79 µM (inactive).

In the case of `COCCN1Cc2cccc(C(=O)Nc3cccc(-c4nc5ccccc5[nH]4)c3)c2C1=O`, the IC50 was > 79 µM (inactive). The same measure for `O=C1c2cccnc2Oc2ccc(Cl)cc2N1Cc1ccc(F)cc1`: > 79 µM (inactive).

Take `COC(=O)c1ccccc1NC(=O)c1nc2nc(C)cc(C)n2n1`: the IC50 is > 79 µM (inactive). For the compound `CCOC(=O)C1=C(C)NC(C)=C(C(=O)OCC)C1C(=O)OCC(=O)NC1CCCCC1`, the IC50 was 6.02 µM.

In the case of `CC1(C)Cc2c(c(N3CCOCC3)nc3sc4c(NN)ncnc4c23)CS1`, the IC50 is > 79 µM (inactive).

Regarding `O=CNc1cc(-c2ccc(C(=O)NC3CC3)cc2)cn2c(-c3ccccc3)cnc12`, the IC50 was 12.1 µM. The same measure for `COC(=O)N1C(=O)[C@](c2ccccc2)(C2CCCCC2)N1C(=O)OC`: 25.4 µM; for `COc1cc2ccccc2cc1C(=O)NNC(=O)c1ccccc1O`: > 79 µM (inactive); for `c1ccc(-c2oc3ncnc(NCCN4CCOCC4)c3c2-c2ccccc2)cc1`: 23.2 µM. As for `Cc1ccc(NC(=O)c2nc[nH]c2C(=O)NCCCCCNC(=O)OC(C)(C)C)cc1`, the IC50 is > 79 µM (inactive). The same measure for `NS(=O)(=O)c1ccc(N=Cc2c(O)n(-c3nccs3)c(=O)c3ccccc23)cc1`: > 79 µM (inactive); for `CC(C)CC(C(=O)NC1CCCCC1)N(Cc1cccs1)C(=O)c1snc(C(N)=O)c1N` (centres undefined): 30.1 µM (inactive). The same measure for `CCCNC(=O)c1ccc(N2CCC3(CC2)CC(c2ccccc2)=NO3)c(NC(=O)c2ccco2)c1`: > 79 µM (inactive); for `CCc1cc2cccc(C)c2nc1SCC(=O)N1CCN(C(=O)c2ccco2)CC1`: > 79 µM (inactive). Turning to `Cc1ccc(C)c(NC(=O)C(Sc2nc3ccccc3c(=O)n2CC(C)C)c2ccccc2)c1` (centres undefined), the IC50 is > 79 µM (inactive).

As for `COc1cccc(-c2nnc3sc(-c4ccccn4)nn23)c1`, the IC50 was > 79 µM (inactive). The same measure for `O=C(COc1cccc(F)c1)Nc1nc(-c2ccccn2)cs1`: 30.9 µM (inactive); for `O=C(Cn1[nH]c(=O)c2ccccc2c1=O)NC1CCCCCC1`: > 79 µM (inactive). With `O=c1[nH]n(CC2COC3(CCCCC3)O2)c(=O)c2ccccc12` (centres undefined) the figure was > 79 µM (inactive).

On to `O=C(NCC(=O)N(Cc1ccccc1)C(C(=O)NC1CCCCC1)c1ccco1)c1ccco1` (centres undefined), for which the IC50 is 16.2 µM.

Take `CS(=O)(=O)N(Cc1ccc(C(=O)NCCSc2ccccn2)cc1)c1ccccc1`: the IC50 is > 79 µM (inactive). The same measure for `COc1ccc(-c2csc(NC(=O)CCCc3nc4ccccc4c(=O)[nH]3)n2)cc1OC`: 25.3 µM; for `COc1ccccc1NC(=O)COc1ccc(/C=N/NC(=O)c2cccnc2)cc1`: 14.8 µM.
